Assays:
Format in all cases: functional
NCI-H226 = experiment: Growth inhibition of human NCI-H226 cells assessed as cell growth at 100 uM incubated for 48 hrs by sulforhodamine B assay relative to control; details: read-out: Activity
BT-549 [1] = experiment: Growth inhibition of human BT-549 cells assessed as cell growth at 0.1 uM incubated for 48 hrs by sulforhodamine B assay relative to control; details: read-out: Activity
MDA-MB-231 = experiment: Growth inhibition of human MDA-MB-231 cells assessed as cell growth at 0.01 uM incubated for 48 hrs by sulforhodamine B assay relative to control; details: read-out: Activity
SR [2] = experiment: Growth inhibition of human SR cells assessed as cell growth at 100 uM incubated for 48 hrs by sulforhodamine B assay relative to control; details: read-out: Activity
HCC 2998 [3] = experiment: Growth inhibition of human HCC 2998 cells assessed as cell growth at 1 uM incubated for 48 hrs by sulforhodamine B assay relative to control; details: read-out: Activity
OVCAR-5 = experiment: Growth inhibition of human OVCAR-5 cells assessed as cell growth at 0.1 uM incubated for 48 hrs by sulforhodamine B assay relative to control; details: read-out: Activity
OVCAR-8 [4] = experiment: Growth inhibition of human OVCAR-8 cells assessed as cell growth at 1 uM incubated for 48 hrs by sulforhodamine B assay relative to control; details: read-out: Activity
SF-539 [5] = experiment: Growth inhibition of human SF-539 cells assessed as cell growth at 0.01 uM incubated for 48 hrs by sulforhodamine B assay relative to control; details: read-out: Activity
BT-549 [6] = experiment: Growth inhibition of human BT-549 cells incubated for 48 hrs by sulforhodamine B assay
UACC-257 = experiment: Growth inhibition of human UACC-257 cells assessed as cell growth at 0.1 uM incubated for 48 hrs by sulforhodamine B assay relative to control; details: read-out: Activity
DU-145 = experiment: Growth inhibition of human DU-145 cells assessed as cell growth at 1 uM incubated for 48 hrs by sulforhodamine B assay relative to control; details: read-out: Activity
SR [7] = experiment: Growth inhibition of human SR cells incubated for 48 hrs by sulforhodamine B assay
SF-539 [8] = experiment: Growth inhibition of human SF-539 cells assessed as cell growth at 0.1 uM incubated for 48 hrs by sulforhodamine B assay relative to control; details: read-out: Activity
ACHN = experiment: Growth inhibition of human ACHN cells assessed as cell growth at 0.1 uM incubated for 48 hrs by sulforhodamine B assay relative to control; details: read-out: Activity
K562 = experiment: Growth inhibition of human K562 cells assessed as cell growth at 100 uM incubated for 48 hrs by sulforhodamine B assay relative to control; details: read-out: Activity
LOX IMVI [9] = experiment: Growth inhibition of human LOX IMVI cells assessed as cell growth at 1 uM incubated for 48 hrs by sulforhodamine B assay relative to control; details: read-out: Activity
NCI/ADR-RES = experiment: Growth inhibition of human NCI/ADR-RES cells incubated for 48 hrs by sulforhodamine B assay
SK-OV-3 = experiment: Growth inhibition of human SK-OV-3 cells incubated for 48 hrs by sulforhodamine B assay
IGROV-1 = experiment: Growth inhibition of human IGROV-1 cells incubated for 48 hrs by sulforhodamine B assay
SNB-75 = experiment: Growth inhibition of human SNB-75 cells incubated for 48 hrs by sulforhodamine B assay
HCC 2998 [10] = experiment: Growth inhibition of human HCC 2998 cells assessed as cell growth at 0.1 uM incubated for 48 hrs by sulforhodamine B assay relative to control; details: read-out: Activity
CCRF-CEM = experiment: Growth inhibition of human CCRF-CEM cells assessed as cell growth at 100 uM incubated for 48 hrs by sulforhodamine B assay relative to control; details: read-out: Activity
HCC 2998 [11] = experiment: Growth inhibition of human HCC 2998 cells assessed as cell growth at 100 uM incubated for 48 hrs by sulforhodamine B assay relative to control; details: read-out: Activity
SN12C [12] = experiment: Growth inhibition of human SN12C cells incubated for 48 hrs by sulforhodamine B assay
OVCAR-8 [13] = experiment: Growth inhibition of human OVCAR-8 cells incubated for 48 hrs by sulforhodamine B assay
SR [14] = experiment: Growth inhibition of human SR cells assessed as cell growth at 0.01 uM incubated for 48 hrs by sulforhodamine B assay relative to control; details: read-out: Activity
LOX IMVI [15] = experiment: Growth inhibition of human LOX IMVI cells assessed as cell growth at 0.01 uM incubated for 48 hrs by sulforhodamine B assay relative to control; details: read-out: Activity
SN12C [16] = experiment: Growth inhibition of human SN12C cells assessed as cell growth at 0.01 uM incubated for 48 hrs by sulforhodamine B assay relative to control; details: read-out: Activity
SF-268 = experiment: Growth inhibition of human SF-268 cells incubated for 48 hrs by sulforhodamine B assay
786-0 = experiment: Growth inhibition of human 786-0 cells assessed as cell growth at 1 uM incubated for 48 hrs by sulforhodamine B assay relative to control; details: read-out: Activity
HOP-62 [17] = experiment: Growth inhibition of human HOP-62 cells assessed as cell growth at 0.1 uM incubated for 48 hrs by sulforhodamine B assay relative to control; details: read-out: Activity
HOP-62 [18] = experiment: Growth inhibition of human HOP-62 cells assessed as cell growth at 0.01 uM incubated for 48 hrs by sulforhodamine B assay relative to control; details: read-out: Activity
Malme-3M = experiment: Growth inhibition of human Malme-3M cells assessed as cell growth at 0.01 uM incubated for 48 hrs by sulforhodamine B assay relative to control; details: read-out: Activity
[19] = read-out: LC50 (the source's name)
[20] = read-out: pLC50 (the source's name) (converted)

CC(=O)Nc1cc(CO[Si](C)(C)C(C)(C)C)cc(NC(=O)c2ccc(C(=O)Nc3cccc(NC(=O)CCCN(C)C)c3)cc2)c1
growth at 100 µM (NCI-H226): 87% | growth at 0.1 µM (BT-549 [1]): 93% | growth at 0.01 µM (MDA-MB-231): 102% | growth at 100 µM (SR [2]): 116% | growth at 1 µM (HCC 2998 [3]): 94% | growth at 0.1 µM (OVCAR-5): 93% | growth at 1 µM (OVCAR-8 [4]): 97% | growth at 0.01 µM (SF-539 [5]): 95% | GI50 (BT-549 [6]; read-out: GI50): > 75 µM | CC50 (BT-549 [6]; [19]): > 75 µM | TGI (BT-549 [6]; read-out: TGI): > 75 µM | GI50 (BT-549 [6]; read-out: pGI50 (converted)): > 75.9 µM | CC50 (BT-549 [6]; [20]): > 75.9 µM | TGI (BT-549 [6]; read-out: pTGI): > 75.9 µM | growth at 0.1 µM (UACC-257): 90% | growth at 1 µM (DU-145): 88% | GI50 (SR [7]; read-out: GI50): > 75 µM | CC50 (SR [7]; [19]): > 75 µM | TGI (SR [7]; read-out: TGI): > 75 µM | GI50 (SR [7]; read-out: pGI50 (converted)): > 75.9 µM | CC50 (SR [7]; [20]): > 75.9 µM | TGI (SR [7]; read-out: pTGI): > 75.9 µM | growth at 0.1 µM (SF-539 [8]): 98% | growth at 0.1 µM (ACHN): 97% | growth at 100 µM (K562): 94% | growth at 1 µM (LOX IMVI [9]): 94% | GI50 (NCI/ADR-RES; read-out: GI50): > 75 µM | CC50 (NCI/ADR-RES; [19]): > 75 µM | TGI (NCI/ADR-RES; read-out: TGI): > 75 µM | GI50 (NCI/ADR-RES; read-out: pGI50 (converted)): > 75.9 µM | CC50 (NCI/ADR-RES; [20]): > 75.9 µM | TGI (NCI/ADR-RES; read-out: pTGI): > 75.9 µM | GI50 (SK-OV-3; read-out: GI50): > 75 µM | LC50 (concentration killing 50% of cells) (SK-OV-3; read-out: LC50): > 75 µM | TGI (SK-OV-3; read-out: TGI): > 75 µM | GI50 (SK-OV-3; read-out: pGI50 (converted)): > 75.9 µM | LC50 (concentration killing 50% of cells) (SK-OV-3; read-out: pLC50 (converted)): > 75.9 µM | TGI (SK-OV-3; read-out: pTGI): > 75.9 µM | GI50 (IGROV-1; read-out: GI50): > 75 µM | CC50 (IGROV-1; [19]): > 75 µM | TGI (IGROV-1; read-out: TGI): > 75 µM | GI50 (IGROV-1; read-out: pGI50 (converted)): > 75.9 µM | CC50 (IGROV-1; [20]): > 75.9 µM | TGI (IGROV-1; read-out: pTGI): > 75.9 µM | GI50 (SNB-75; read-out: GI50): > 75 µM | LC50 (SNB-75; read-out: LC50): > 75 µM | TGI (SNB-75; read-out: TGI): > 75 µM | GI50 (SNB-75; read-out: pGI50 (converted)): > 75.9 µM | LC50 (SNB-75; read-out: pLC50 (converted)): > 75.9 µM | TGI (SNB-75; read-out: pTGI): > 75.9 µM | growth at 0.1 µM (HCC 2998 [10]): 97% | growth at 100 µM (CCRF-CEM): 112% | growth at 100 µM (HCC 2998 [11]): 93% | GI50 (SN12C [12]; read-out: GI50): > 75 µM | CC50 (SN12C [12]; [19]): > 75 µM | TGI (SN12C [12]; read-out: TGI): > 75 µM | GI50 (SN12C [12]; read-out: pGI50 (converted)): > 75.9 µM | CC50 (SN12C [12]; [20]): > 75.9 µM | TGI (SN12C [12]; read-out: pTGI): > 75.9 µM | GI50 (OVCAR-8 [13]; read-out: GI50): > 75 µM | CC50 (OVCAR-8 [13]; [19]): > 75 µM | TGI (OVCAR-8 [13]; read-out: TGI): > 75 µM | GI50 (OVCAR-8 [13]; read-out: pGI50 (converted)): > 75.9 µM | CC50 (OVCAR-8 [13]; [20]): > 75.9 µM | TGI (OVCAR-8 [13]; read-out: pTGI): > 75.9 µM | growth at 0.01 µM (SR [14]): 106% | growth at 0.01 µM (LOX IMVI [15]): 101% | growth at 0.01 µM (SN12C [16]): 96% | GI50 (SF-268; read-out: GI50): > 75 µM | LC50 (SF-268; read-out: LC50): > 75 µM | TGI (SF-268; read-out: TGI): > 75 µM | GI50 (SF-268; read-out: pGI50 (converted)): > 75.9 µM | LC50 (SF-268; read-out: pLC50 (converted)): > 75.9 µM | TGI (SF-268; read-out: pTGI): > 75.9 µM | growth at 1 µM (786-0): 93% | growth at 0.1 µM (HOP-62 [17]): 98% | growth at 0.01 µM (HOP-62 [18]): 97% | growth at 0.01 µM (Malme-3M): 99%
